From patent US6875581B1, “Method for screening of modulators of calcineurin activity” (Genopia Biomedical GmbH, priority 1998, dated 2005)

Key:
calcineurin [1] = assay: Phosphotyrosine phosphatase assay with the substrate fluoresceinmonophosphate (FMP); format: biochemical; settings: FMP as substrate, Lineweaver-Burk method
Protocol: 20. Calcineurin phosphatase assay—100 ng-4 μg recombinant calcineurin (calcineurin-A/B heterodimer), 100 ng-1 μg purified bovine brain calcineurin (Sigma Aldrich, Deisenhofen, Germany) or 100 μg homogenized tissue or cell extracts were used for classical calcineurin phosphatase assays. 100 μg cells or tissue were homogenized exactly as described (Stemmer et al., 1995). Partly purified and redox sensitive calcineurin was prepared by centrifugation at 14,000 rpm at 4° C. for 10 min (Eppendorf centrifuge 5417R) and the resulting supernatant was separated on a 1.5×10 cm Sephadex-G50 gelfiltration column as described (Stemmer et al., 1995), (Gold et al., 1997). […] After starting the enzymatic reaction with para-nitrophenylphosphate or fluoresceinmonophosphate the absorbance at 405 nm (para-nitrophenylphosphate) or fluorescence λ exication=485 nm; λ emission=520 nm) was monitored over 20 min at 30° C. using a UV/VIS/fluorescence microplate photometer (Biolumin 960 kinetic fluorescence/absorbance photometer, Molecular Dynamics). […] The protective effect of CuZnSOD against redox inactivation of calcineurin was determined by addition of 3 μg recombinant human wild-type or mutated CuZnSOD (constant CuZnSOD protein) or addition of 1.67 units of recombinant human wild-type or mutated CuZnSOD (constant CuZnSOD activity). […] The quantity of released phosphate was determined by a scintillation counting. […]

[2] = SOD assay (enzymatic activity of the CuZnSOD proteins); format: biochemical
Protocol: 8. SOD assay and activity staining—Enzymatic activity of the CuZnSOD proteins were either analyzed by 10% native gel electrophoresis and activity staining with nitrotetrazolium blue dye or by a quantitative spectrophotometrically assay according to published protocols (Beauchamp and Fridovich, 1971; Nebot et al., 1993). Protein yields were determined by the Bradford method (Protein assay kit, BioRAD, Hercules, Calif., USA). The concentration of purified CuZnSOD was determined spectrophotometrically using the extinction coefficient 265=1.84×10^4 M^−1 cm^−1.

calcineurin [3] = assay: Protective effect of CuZnSOD against calcium induced redox inactivation of calcineurin (FK506 inhibitable RII-phosphopeptide activity); format: biochemical; settings: 20 min vs 0 min; for Percentage of FK506 inhibitable RII-phosphopeptide activity after 20 min compared with the activity at 0 min, constant protein (3 μg): 3 μg CuZnSOD; for Percentage of FK506 inhibitable RII-phosphopeptide activity after 20 min compared with the activity at 0 min, constant activity (1.67 U): 1.67 U CuZnSOD
Protocol: 20. Calcineurin phosphatase assay—100 ng-4 μg recombinant calcineurin (calcineurin-A/B heterodimer), 100 ng-1 μg purified bovine brain calcineurin (Sigma Aldrich, Deisenhofen, Germany) or 100 μg homogenized tissue or cell extracts were used for classical calcineurin phosphatase assays. 100 μg cells or tissue were homogenized exactly as described (Stemmer et al., 1995). Partly purified and redox sensitive calcineurin was prepared by centrifugation at 14,000 rpm at 4° C. for 10 min (Eppendorf centrifuge 5417R) and the resulting supernatant was separated on a 1.5×10 cm Sephadex-G50 gelfiltration column as described (Stemmer et al., 1995), (Gold et al., 1997). Phosphotyrosine phosphatase assay was performed in microplates (100 μl total assay volume) either using 30 μM fluoresceinmonophosphate or 20 mM para-nitrophenylphosphate (Sigma Aldrich, Deisenhofen, Germany); 10 μl recombinant, purified or partly purified and assay buffer (25 mM Tris/HCl, pH 7; 2 mM CaCl2; 0.1 μM calmodulin; 25 μM FK506). After starting the enzymatic reaction with para-nitrophenylphosphate or fluoresceinmonophosphate the absorbance at 405 nm (para-nitrophenylphosphate) or fluorescence λ exication=485 nm; λ emission=520 nm) was monitored over 20 min at 30° C. using a UV/VIS/fluorescence microplate photometer (Biolumin 960 kinetic fluorescence/absorbance photometer, Molecular Dynamics). Phosphoserine phosphatase assay was performed as described (Hubbard and Klee, 1991), (Wang et al., 1996). […] The protective effect of CuZnSOD against redox inactivation of calcineurin was determined by addition of 3 μg recombinant human wild-type or mutated CuZnSOD (constant CuZnSOD protein) or addition of 1.67 units of recombinant human wild-type or mutated CuZnSOD (constant CuZnSOD activity). The reaction mixture was incubated for 2 min at 30° C. and stopped with 100 mM potassium phosphate/5% TCA. The reaction mixture was passed through a 0.5 ml ion-exchange column (Dowex; AG 50W-X8, BioRad) and the unbound phosphate eluted with 0.5 ml water. The quantity of released phosphate was determined by a scintillation counting.
Protective Effect of CuZnSOD of Calcium Induced Inactivation of Calcineurin
Percentage of FK506 inhibitable RII-phosphopeptide activity after 20 min compared with the activity at 0 min

[4] = test system: calcineurin-A/B heterodimer; assay: Laser fluctuation correlation spectroscopy, binding of fluorescence labeled CuZnSOD to calcineurin; parameters: species or system human; settings: labeled CuZnSOD alone 41 kDa; expected 114 kDa
Description: 21. High Throughput BioAssay using recombinant calcineurin-A, recombinant calcineurin-B, calmodulin and recombinant CuZnSOD (analytical assay to identify activators or inhibitors of CuZnSOD/calcineurin interaction)—Laser fluctuation correlation spectroscopy (FCS) is a useful tool to quantify ligand—ligand interactions. The fluorescence F(t) of a optical well defined volume element which is excitated by a confocal laser is monitored as a function of time. The temporal autocorrelation of the fluorescence fluctuation δ F(t) yields the time scale of this dynamics and the average number of independent fluorophores in the probe volume. If the fluorescene fluctuation arise from diffusive motion and from fluorescence sensitive reaction, fluorescent fluctuation correlation function signal is approximated by the formula: GDR(τ)=GDiff(τ)*[1+A*exp(−kR*τ)] • τ=fluorescence correlation time • kR=apparent binding constant of the fluorescent labeled ligand • A=equilibrium coefficent dependent constant
If one measurement is performed with a solution only containing the fluorescent labeled ligand and a second measurement is performed with a solution containing the fluorescent labeled ligand and an interacting molecule the correlation function GDR can be separately analyzed and yields binding parameters of the interacting molecules. […]

| Vmax (calcineurin [1]) | Km (calcineurin [1]; Michaelis-Menten kinetic assumed) | Compound | CuZnSOD activity per mg protein [2] | Percentage of FK506 inhibitable RII-phosphopeptide activity after 20 min compared with the activity at 0 min, constant protein (3 μg) (calcineurin [3]) | Percentage of FK506 inhibitable RII-phosphopeptide activity after 20 min compared with the activity at 0 min, constant activity (1.67 U) (calcineurin [3]) | hydrodynamic radius / apparent molecular weight after addition of calcineurin-A/B heterodimer [4] |
| --- | --- | --- | --- | --- | --- | --- |
| 400 µmol/min | 40 µM | O=C1OC2(c3ccc(O)cc3Oc3cc(OP(=O)(O)O)ccc32)c2ccccc21 (stereo not shown) [FMP, fluoresceinmonophosphate] | – | – | – | – |
| – | – | erythrocyte wild-type: purified human erythrocyte CuZnSOD (Sigma Aldrich) [reference compound] | (8330 U/mg) | 57 +/− 10% | 57 +/− 10% | – |
| – | – | labeled CuZnSOD: recombinant CuZnSOD labeled with Oregon-Green-514 dye | – | – | – | 90 kDa |
| – | – | recomb. mutation A4V: recombinant human CuZnSOD with substitution Ala-4 -> Val-4 | (1820 U/mg) | 22 +/− 27% | 8 +/− 3% | – |
| – | – | recomb. mutation D90A: recombinant human CuZnSOD with substitution Asp-90 -> Ala-90 | (4590 U/mg) | 42 +/− 17% | 32 +/− 15% | 180.000 kDa |
| – | – | recomb. mutation G93A: recombinant human CuZnSOD with substitution Gly-93 -> Ala-93 | (2130 U/mg) | 16 +/− 16% | 21 +/− 22% | – |
| – | – | recombinant wild-type: recombinant human wild-type copper/zinc superoxide dismutase expressed in E. coli | (6380 U/mg) | 70 +/− 33% | 56 +/− 22% | – |
